The subject of series [1] is Primary NNRCCs (neonatal rat cardiac cells), 2D culture dishes and 3D constructs. In words: Spontaneous contractile (beat) frequency of cardiac cell cultures before and after exposure to adrenergic/cholinergic agents. The series is classed as cell-based. Particulars: for Propranolol responders: responding cultures of all cultures; for Postproprandolol beat frequency: three minutes after pharmacological dose, responders, 37° C.; for decrease in beat frequency post propranolol: versus baseline of responders. As for the experimental part: Primary NNRCCs in SFHM form spontaneously and rhythmically contracting cultures within the first twenty hours after plating in monolayer cultures. To directly assess contractility and the modulation of contractile activity by […], the effects of propranolol, which is a beta-blocker on the frequency of spontaneous contraction in 2D and 3D preparation were evaluated. 3D cardiac cell cultures were prepared in transparent Teflon® culture bags that were slowly rotated to quiescently suspend the cells and HFN-coated polystyrene beads. Cultures were observed on a 37° C. microscope stage and the spontaneous contractile frequency of the constructs was determined. Samples were then exposed to a pharmacological dose of propranolol without disturbing the field of view on the microscope stage. Three minutes later, the contractile frequency was reassessed.
As expected, both culture types were spontaneously contractile. In standard (2D) preparations entire culture wells beat in unison. In the 3D constructs, entire aggregates of cells in physical contact beat in unison. […]

Series [2] concerns bioreactor cultured neonatal rat cardiac cells on microcarriers (BMP 2 function). In words: Formation of tissue-like aggregates in bioreactor cardiac cultures with Noggin (BMP antagonist) in the media. The format is cell-based. As for the experimental part:
2 day old neonatal rat pups were halothane anesthetized and cardioectomitized. The isolated hearts were minced and subjected to about 16 hour digestion by about […] trypsin, followed by about […] collagenase II digestion and cell straining to completely separate individual cells. The cells were then counted on hemocytometer with trypan blue staining aid resuspended in modified serum-free cardiac media (SM3+) at a density of about 1×10^6 total cells/ml. Cells were then mixed with fibronectin-coated Nunclon plastic microcarriers at […] and infused into PTFE bags for bioreactor rotation, with the remainder plated onto fibronectin-coated six-well Nunclon plastic plates at a density of about 2×10^6 cells/well as a control population. Feeding was performed at about 24 hours post-inoculation to remove unattached cells, and about every 3 days thereafter. Samples were collected prior to culture start (Day 0) and at varying intervals thereafter. For the Noggin treatment protocol, about. 0.4 μg/ml Noggin (Pepro Tech, London, UK) in about 10 mM acetic acid was added to media just prior to inoculation and to media used for feeding, with control using untreated media.
Moreover, Noggin was used to assess the role of BMP2 in the formation of tissue-like aggregates in bioreactors. Noggin is a secreted factor which acts as an antagonist for members of the BMP family of proteins (i.e., in solution, Noggin will bind BMP 2 and prevent BMP 2 from binding to its receptor). Thus, adding an effective amount of Noggin to the culture media may suppress BMP 2 function. […] The control bioreactor cardiac cultures formed large tissue-like aggregates surrounding multiple microcarriers complete with substantial thick structure formation visible between the microcarriers.

Turning to `CN1[C@@H]2CC[C@H]1C[C@@H](OC(=O)C(CO)c1ccccc1)C2` (some centres unmarked) [atropine], the “alteration of baseline contractile frequency” value in series [1] (cholinergic antagonist) is given as “did not result in an alteration of baseline contractile frequency”.

Regarding `CC(C)NCC(O)COc1cccc2ccccc12` (centres unmarked) [Propranolol, propranolol], in series [1] (2D/culture dishes), the Propranolol responders result is recorded as “(19 of 25)”, the Postproprandolol beat frequency is reported as 130.86 (±10.23) and the “decrease in beat frequency post propranolol” value worked out at 30% decrease. Also, in series [1] (3D/HARVs), the Propranolol responders result is reported as “(6 of 12)”, the Postproprandolol beat frequency is on record as 34.59 (±3.842) and the “decrease in beat frequency post propranolol” value was 34% decrease. Further, the “effect on beat frequency” value in series [1] (both 3D and 2D conformations) was “decrease in beat frequency in a subset of cultures”.

B1: Noggin: secreted factor which acts as an antagonist for members of the BMP family of proteins (Pepro Tech) (protein, UniProt Q13253 28-232, looked up)
Noggin: QHYLHIRPAPSDNLPLVDLIEHPDPIFDPKEKDLNETLLRSLLGGHYDPGFMATSPPEDRPGGGGGAAGGAEDLAELDQLLRQRPSGAMPSEIKGLEFSEGLAQGKKQRLSKKLRRKLQMWLWSQTFCPVLYAWNDLGSRFWPRYVKVGSCFSKRSCSVPEGMVCKPSKSVHLTVLRWRCQRRGGQRCGWIPIQYPIISECKCSC
Turning to B1, the “aggregate size (connected microcarrier supports)” value in series [2] (Noggin treated bioreactor culture, 6 days post inoculation) was 2-3 microcarrier supports. In addition, the “contractile activity / myocyte interaction” value in series [2] (Noggin-treated cultures, about 8 hour post-inoculation) is “no disruption in myocyte interaction or contractile apparatus reformation”. In series [2] (about 0.4 μg/ml Noggin in media, bioreactor culture), the tissue-like aggregate formation entry is given as “only small thin aggregates”.

These data come from patent US20080075750A1, “METHODS FOR PRODUCING THREE-DIMENSIONAL TISSUE-ENGINEERED CARDIAC CONSTRUCTS AND USES REGARDING SAME” (The Nemours Foundation, priority 2001, published 2008).
